Reference: patent publication US8551981B2, “Furo[3,2-d]pyrimidine compounds” (AbbVie Inc., priority 2010, dated 2013)

Tested on: Fcγ receptor signaling
Assay: Reverse Passive Arthus model
Format: in vivo
Details: Rattus norvegicus, single dose 10 mg/kg
Procedure: Acute in vivo measurement of Fcγ receptor signaling inhibition of the compounds is measured using the:
Reverse Passive Arthus Model
On day 0 OVA was made up at a concentration of 17 mg/mL, in PBS by rocking gently until a solution was formed. 2% Evans Blue solution (Sigma Aldrich, cat# E2129) was then added to double the volume for a final concentration of 8.5 mg/mL of OVA and 1% Evans Blue dye. Anti-OVA antibody (Abazyme), stock concentration 10 mg/mL, was thawed and a 4 mg/mL solution was made with PBS. Compounds were made up in 0.5% HPMC with 0.02% Tween 80, and vortexed for about 15 seconds followed by homogenization for a minimum of about 2 min at 28,000 RPM until there was a fine particulate suspension with no clumps of compound. Rats were weighed and dosed with compound at a pre-determined time based on compound Tmax determined in pharmacokinetic studies. Animals were then placed under general anesthesia with a 5% isoflourane and oxygen mixture and shaved. Using a 0.5 cc insulin syringe two sites were injected i.d., 1 site with 100 μL of 4.0 mg/mL of anti-OVA antibody, and 1 site with 100 μL of sterile PBS. Each injection site was circled with a permanent marker to mark the site. Immediately following i.d. injections, animals were injected with 200 μL of the OVA (10 mg/kg)/1% Evans Blue mixture, i.v., using a 0.5 cc insulin syringe. About 4 h post injection animals were euthanized, bled via cardiac puncture and blood was put into plasma separation tubes. Blood samples were stored on ice until centrifugation (within about 2 h of collection). Each injection site was removed with a disposable biopsy punch (Acuderm Acu-Punch Disposable 12 mm), cut into four pieces and placed in a pre-labeled 2 mL eppendorf tube. One mL of DMF (99%) was added to each biopsy tube and they were placed in a heat block at about 50° C. for about 24 h. After incubation, 100 μL of each sample was transferred to a 96 well flat bottom plate and read at 620 nm on a plate reader using the Softmax software. Background was removed by subtracting the OD from the PBS injected site from the OD of the anti-OVA injected site for each individual animal. Plasma samples were spun down in a microcentrifuge (Eppendorf 5415R) for about 5 min at 16.1 rcf. 200 μL of plasma was placed in a 1.7 mL eppendorf tube for drug level measurements and tubes were stored at about −80° C. until evaluation.

| SMILES | inhibition in vivo at 10 mg/kg |
| --- | --- |
| CC1(C)Oc2ccc(Nc3nc(N4CCC(O)(CN)CC4)c4occc4n3)cc2NC1=O [Example #AM.1.1] | 12% |
| CC1(C)Oc2ccc(Nc3nc(N4CC[C@@H](CN)[C@H](O)C4)c4occc4n3)cc2NC1=O [Example #AM.1.2] | -16% |
| CC1(C)C(=O)Nc2cc(Nc3nc(N4CCC(O)(CN)CC4)c4occc4n3)ccc21 [Example #AM.1.3] | 15% |
| CN(C)C(=O)c1n[nH]c2cc(Nc3nc(NC4CC4)c4occc4n3)ccc12 [J.1, 6-(4-(Cyclopropylamino)furo[3,2-d]pyrimidin-2-ylamino)-N,N-dimethyl-1H-indazole-3-carboxamide] | -2% |
| c1cc(-c2n[nH]c3cc(Nc4nc(NC5CC5)c5occc5n4)ccc23)ccn1 [J.1.7] | 12% |
| N#Cc1n[nH]c2cc(Nc3nc(NC4CC4)c4occc4n3)ccc12 [J.1.8] | 9% |
| Cc1n[nH]c2cc(Nc3nc(N4CCC5(CC4)CNCCO5)c4occc4n3)ccc12 [Q.1.4] | 33% |
